Test results as given in ChEMBL document CHEMBL1201862, “PubChem BioAssay data set” (2004).
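1) Cells in 96-well plates. 2) Compound, 48 h, 5 concentrations. 3) Linear interpolation between surrounding doses. 4) Unreached endpoint = highest concentration. Here, GI50 denotes the concentration required for 50% inhibition of growth.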 The source made the active and inactive calls. Rule as the data show it: active = GI50 up to about 1.1 µM and inactive = higher.

What was measured:
Assay in all cases: growth of human tumour cells (NCI), 48 h
[1] = test system: SK-OV-3
[2] = test system: NCI-H226
[3] = test system: KM12
[4] = test system: SNB-19
[5] = test system: HOP-62
[6] = test system: PC-3
[7] = test system: MCF7
[8] = test system: U-251
[9] = test system: SK-MEL-5
[10] = test system: TK-10
[11] = test system: IGROV-1
[12] = test system: SF-539
[13] = test system: RXF 393
[14] = test system: T47D
[15] = test system: SF-295
[16] = test system: A498
[17] = test system: MDA-MB-231
[18] = test system: OVCAR-8
[19] = test system: A549
[20] = test system: MDA-MB-435
[21] = test system: M14
[22] = test system: SN12C
[23] = test system: NCI-H23
[24] = test system: UACC-62
[25] = test system: K562
[26] = test system: MOLT-4
[27] = test system: HCT-116
[28] = test system: HCC 2998
[29] = test system: OVCAR-3
[30] = test system: CAKI-1
[31] = test system: UO-31
[32] = test system: HCT-15
[33] = test system: OVCAR-5
[34] = test system: CCRF-CEM
[35] = test system: EKVX
[36] = test system: NCI/ADR-RES
[37] = test system: 786-0
[38] = test system: SW-620
[39] = test system: MDA-N
[40] = test system: NCI-H522
[41] = test system: ACHN
[42] = test system: HOP-92
[43] = test system: DU-145
[44] = test system: SNB-75
[45] = test system: Malme-3M
[46] = test system: SK-MEL-2
[47] = test system: COLO 205
[48] = test system: RPMI-8226
[49] = test system: HL-60
[50] = test system: LOX IMVI
[51] = test system: UACC-257
[52] = test system: SK-MEL-28
[53] = test system: OVCAR-4
[54] = test system: NCI-H460
[55] = test system: SR
[56] = test system: SF-268
[57] = test system: HT-29

Measured: GI50

COc1ccc(-n2c(=O)n(-c3ccccc3)c(=O)n2-c2ccc(OC)cc2)cc1
> 100 µM: [32]
inactive: [1] > 100 µM | [2] > 100 µM | [3] > 100 µM | [4] > 100 µM | [5] > 100 µM | [6] > 100 µM | [7] > 100 µM | [8] > 100 µM | [9] > 100 µM | [10] > 100 µM | [11] > 100 µM | [12] > 100 µM | [13] > 100 µM | [14] > 100 µM | [15] > 100 µM | [16] > 100 µM | [17] > 100 µM | [18] > 100 µM | [19] > 100 µM | [20] > 100 µM | [21] > 100 µM | [22] > 100 µM | [23] > 100 µM | [24] > 100 µM | [25] 80.4 µM | [26] > 100 µM | [27] > 100 µM | [28] > 100 µM | [29] > 100 µM | [30] 1.78 µM | [31] > 100 µM | [33] > 100 µM | [34] > 100 µM | [35] > 100 µM | [36] > 100 µM | [37] > 100 µM | [38] > 100 µM | [39] > 100 µM | [40] > 100 µM | [41] > 100 µM | [42] 27.7 µM | [43] > 100 µM | [44] > 100 µM | [45] > 100 µM | [46] > 100 µM | [47] > 100 µM | [48] > 100 µM | [49] > 100 µM | [50] > 100 µM | [51] > 100 µM | [52] > 100 µM | [53] > 100 µM

CCOC1=NC(O)c2cccn2-c2sccc21 (stereo not given)
> 100 µM: [32]
inactive: [1] 93.3 µM | [3] > 100 µM | [4] > 100 µM | [5] > 100 µM | [6] > 100 µM | [7] > 100 µM | [8] > 100 µM | [54] > 100 µM | [9] 96.4 µM | [10] 82.4 µM | [12] > 100 µM | [13] > 100 µM | [14] > 100 µM | [15] > 100 µM | [16] 56.8 µM | [17] > 100 µM | [18] > 100 µM | [55] 34.2 µM | [19] 43.2 µM | [20] > 100 µM | [21] > 100 µM | [22] > 100 µM | [23] > 100 µM | [24] > 100 µM | [25] 57.8 µM | [26] 51.6 µM | [27] > 100 µM | [28] > 100 µM | [29] > 100 µM | [30] > 100 µM | [31] > 100 µM | [33] > 100 µM | [56] > 100 µM | [36] > 100 µM | [37] > 100 µM | [38] > 100 µM | [39] > 100 µM | [40] > 100 µM | [41] > 100 µM | [57] > 100 µM | [42] > 100 µM | [43] > 100 µM | [45] > 100 µM | [46] > 100 µM | [47] 7.73 µM | [48] 26.7 µM | [52] > 100 µM | [53] > 100 µM

CCN(CC)CCC/N=c1\c2cc(OC)ccc2[nH]c2c([N+](=O)[O-])ccc(NCCCN(CC)CC)c12
1.43 µM: [32]
inactive: [1] 3.08 µM | [3] 1.52 µM | [5] 4.47 µM | [6] 1.47 µM | [7] 1.54 µM | [9] 9.42 µM | [10] 8.24 µM | [11] 3.42 µM | [13] 1.95 µM | [14] > 10 µM | [17] 1.49 µM | [19] 1.78 µM | [21] > 10 µM | [22] 2.04 µM | [23] 2.26 µM | [24] > 10 µM | [25] 1.77 µM | [28] 1.49 µM | [30] 9.66 µM | [56] 2.87 µM | [35] 3.97 µM | [37] 1.45 µM | [38] 1.69 µM | [39] 5.77 µM | [57] 1.6 µM | [43] 5.13 µM | [44] > 10 µM | [45] > 10 µM | [47] 5.13 µM | [48] 1.72 µM | [50] 1.34 µM | [51] > 10 µM | [52] > 10 µM
active: [18] 1.03 µM | [26] 0.484 µM | [34] 0.479 µM | [49] 0.3 µM
